{"source": "patent US20190210973A1", "about": "“COMPOUNDS AND METHODS FOR TREATMENT OF CYSTIC FIBROSIS” (The Curators of the University of Missouri, priority 2018, published 2019)", "key": {"G551D-CFTR": {"molecular_target": "T1, G551D-CFTR (Homo sapiens, UniProt P13569, G551D)", "T1 construct": "The cDNA constructs of CFTR (G551D and delF508) were co-transfected with peGFP-C3; expressed in transfected cells; host or cells: CHO cells (ATCC), transient co-transfection with pEGFP-C3 (GFP as a separate marker, not fused)", "T1 sequence (P13569 whole entry G551D, the tested form may be a part)": "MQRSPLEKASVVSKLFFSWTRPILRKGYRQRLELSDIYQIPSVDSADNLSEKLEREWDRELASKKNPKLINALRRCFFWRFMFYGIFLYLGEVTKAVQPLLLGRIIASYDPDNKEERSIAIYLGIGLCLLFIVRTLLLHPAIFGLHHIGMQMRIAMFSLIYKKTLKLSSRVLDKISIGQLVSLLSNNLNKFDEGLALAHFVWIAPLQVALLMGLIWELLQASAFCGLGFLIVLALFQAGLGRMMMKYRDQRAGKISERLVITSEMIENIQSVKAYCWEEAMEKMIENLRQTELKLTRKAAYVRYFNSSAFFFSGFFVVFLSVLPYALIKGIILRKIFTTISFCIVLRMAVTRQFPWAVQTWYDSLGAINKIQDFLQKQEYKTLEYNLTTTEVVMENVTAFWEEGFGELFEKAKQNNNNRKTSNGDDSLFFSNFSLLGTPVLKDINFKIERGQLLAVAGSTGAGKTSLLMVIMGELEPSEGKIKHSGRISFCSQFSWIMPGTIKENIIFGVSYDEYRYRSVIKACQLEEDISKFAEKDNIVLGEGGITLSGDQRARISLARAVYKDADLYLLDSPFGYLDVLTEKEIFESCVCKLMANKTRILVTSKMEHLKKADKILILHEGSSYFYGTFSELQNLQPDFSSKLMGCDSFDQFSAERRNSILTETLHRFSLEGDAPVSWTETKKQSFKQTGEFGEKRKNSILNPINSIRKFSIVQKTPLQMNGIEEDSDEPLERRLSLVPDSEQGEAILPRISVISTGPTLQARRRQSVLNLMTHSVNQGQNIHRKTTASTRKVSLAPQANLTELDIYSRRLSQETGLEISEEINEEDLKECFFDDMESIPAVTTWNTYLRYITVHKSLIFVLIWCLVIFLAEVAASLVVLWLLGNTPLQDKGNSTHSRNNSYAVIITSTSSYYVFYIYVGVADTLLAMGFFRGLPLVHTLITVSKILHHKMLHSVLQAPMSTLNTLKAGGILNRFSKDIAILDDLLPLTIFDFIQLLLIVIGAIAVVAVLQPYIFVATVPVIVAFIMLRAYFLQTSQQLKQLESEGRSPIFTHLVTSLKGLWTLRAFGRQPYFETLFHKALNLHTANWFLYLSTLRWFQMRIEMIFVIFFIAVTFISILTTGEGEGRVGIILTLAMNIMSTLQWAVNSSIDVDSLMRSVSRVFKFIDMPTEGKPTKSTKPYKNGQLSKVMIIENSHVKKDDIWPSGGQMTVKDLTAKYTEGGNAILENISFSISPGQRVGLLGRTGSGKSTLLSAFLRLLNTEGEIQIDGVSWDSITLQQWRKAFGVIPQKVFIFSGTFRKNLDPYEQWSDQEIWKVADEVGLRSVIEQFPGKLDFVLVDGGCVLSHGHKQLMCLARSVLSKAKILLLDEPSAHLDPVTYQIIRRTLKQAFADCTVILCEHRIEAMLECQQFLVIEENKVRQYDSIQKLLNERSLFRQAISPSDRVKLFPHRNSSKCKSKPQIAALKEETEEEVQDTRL", "assay": "Patch-clamp recording of G551D-CFTR currents in excised inside-out patches of transfected CHO cells", "assay_type": "cell-based", "source_text": "Patch-clamp is considered the gold standard for assessing directly ion channel function in real time. By attaching a glass microelectrode on the surface of a cell, it is possible to record the currents generated by channels proteins that are present in this tiny “patch” of cell membranes. Since millions of ions pass through a single ion channel pore per second, the resulting microscopic currents from a single channel protein molecule can be detected with modem patch-clamp amplifiers. As ion channels (a conductor in electricity term) are arranged in parallel in the cell membrane, it is also possible to assay a group of ion channels by monitoring macroscopic currents representing the sum of currents from individual channels. Microscopic recordings allow artisans to examine exquisitely the effects of compounds on the Po and kinetic parameters of CFTR channels; whereas macroscopic recordings provide an assay not only to quantify the overall effects of compounds on N×Po×i, but also monitor the stability of the CFTR currents in real time.\nChinese hamster ovary (CHO) cells were grown at 37° C. in Dulbecco's modified Eagle's medium supplemented with 10% fetal bovine serum. Cells were subcultured into 35-mm tissue culture dishes 1 day before transfection. PolyFect transfection reagent (QIAGEN) was used to cotransfect CFTR cDNA and pEGFP-C3 (Takara Bio Inc.), which encodes green fluorescence proteins, into CHO cells. After transfection, cells were incubated at 27° C. for at least 2 days before electrophysiological experiments were performed.\nGlass chips carrying the transfected cells were transferred to a chamber located on the stage of an inverted microscope (IX51; Olympus). Borosilicate capillary glasses were used to make patch pipettes using a two-stage micropipette puller (PP-81, Narishige, Japan). The pipettes were polished with a homemade microforge to a resistance of 2-4 MΩ in the bath solution. Once the seal resistance reached >40 GΩ, membrane patches were excised into an inside-out mode. Subsequently, the pipette was moved to the outlet of a three-barrel perfusion system and perfused with 25 IU PKA and 2 mM ATP until the CFTR current reached a steady state. A patch-clamp amplifier (EPC10, HEKA, Germany) was used to record electrophysiological data at room temperature. The data were filtered online at 100 Hz with an eight-pole Bessel filter (LPF-8; Warner Instruments) and digitized to a computer at a sampling rate of 500 Hz. […] Membrane potential was held at −30 or −50 mV for all recordings.\nDisease-causing mutations (G551D and delF508) were made with PCR-based site-directed mutagenesis using the Pfu Ultra II (Agilent Technologies). […] The cDNA constructs of CFTR (G551D and delF508) were co-transfected with peGFP-C3 (Takara Bio Inc.) encoding the green fluorescent protein into CHO cells using PolyFect transfection reagent (QIAGEN). The transfected cells were transferred into 35 mm tissue culture dishes containing one layer of sterilized glass chips for cells to grow on. The transfected cells were incubated at 27° C. for 2-7 days before electrophysiological experiments were performed.\nAll patch-clamp experiments were carried out in the excised inside-out configuration. Micropipettes made of borosilicate capillary glass were pulled with a two-stage vertical puller (Narishige) and then fire-polished with a homemade microforge to reach a pipet resistance of 2-4 MΩ when the pipettes were filled with a standard inside-out pipet solution that contains: 140 mM N-Methyl-D-glucamine-Cl (NMDG-Cl), 2 mM MgCl2, 5 mM CaCl2) and 10 mM HEPES, adjusted to pH 7.4 with NMDG."}, "delF508-CFTR": {"molecular_target": "delF508-CFTR (Homo sapiens, UniProt P13569, DEL508-508)", "sequence (P13569 with tags, fused parts or gaps DEL508-508)": "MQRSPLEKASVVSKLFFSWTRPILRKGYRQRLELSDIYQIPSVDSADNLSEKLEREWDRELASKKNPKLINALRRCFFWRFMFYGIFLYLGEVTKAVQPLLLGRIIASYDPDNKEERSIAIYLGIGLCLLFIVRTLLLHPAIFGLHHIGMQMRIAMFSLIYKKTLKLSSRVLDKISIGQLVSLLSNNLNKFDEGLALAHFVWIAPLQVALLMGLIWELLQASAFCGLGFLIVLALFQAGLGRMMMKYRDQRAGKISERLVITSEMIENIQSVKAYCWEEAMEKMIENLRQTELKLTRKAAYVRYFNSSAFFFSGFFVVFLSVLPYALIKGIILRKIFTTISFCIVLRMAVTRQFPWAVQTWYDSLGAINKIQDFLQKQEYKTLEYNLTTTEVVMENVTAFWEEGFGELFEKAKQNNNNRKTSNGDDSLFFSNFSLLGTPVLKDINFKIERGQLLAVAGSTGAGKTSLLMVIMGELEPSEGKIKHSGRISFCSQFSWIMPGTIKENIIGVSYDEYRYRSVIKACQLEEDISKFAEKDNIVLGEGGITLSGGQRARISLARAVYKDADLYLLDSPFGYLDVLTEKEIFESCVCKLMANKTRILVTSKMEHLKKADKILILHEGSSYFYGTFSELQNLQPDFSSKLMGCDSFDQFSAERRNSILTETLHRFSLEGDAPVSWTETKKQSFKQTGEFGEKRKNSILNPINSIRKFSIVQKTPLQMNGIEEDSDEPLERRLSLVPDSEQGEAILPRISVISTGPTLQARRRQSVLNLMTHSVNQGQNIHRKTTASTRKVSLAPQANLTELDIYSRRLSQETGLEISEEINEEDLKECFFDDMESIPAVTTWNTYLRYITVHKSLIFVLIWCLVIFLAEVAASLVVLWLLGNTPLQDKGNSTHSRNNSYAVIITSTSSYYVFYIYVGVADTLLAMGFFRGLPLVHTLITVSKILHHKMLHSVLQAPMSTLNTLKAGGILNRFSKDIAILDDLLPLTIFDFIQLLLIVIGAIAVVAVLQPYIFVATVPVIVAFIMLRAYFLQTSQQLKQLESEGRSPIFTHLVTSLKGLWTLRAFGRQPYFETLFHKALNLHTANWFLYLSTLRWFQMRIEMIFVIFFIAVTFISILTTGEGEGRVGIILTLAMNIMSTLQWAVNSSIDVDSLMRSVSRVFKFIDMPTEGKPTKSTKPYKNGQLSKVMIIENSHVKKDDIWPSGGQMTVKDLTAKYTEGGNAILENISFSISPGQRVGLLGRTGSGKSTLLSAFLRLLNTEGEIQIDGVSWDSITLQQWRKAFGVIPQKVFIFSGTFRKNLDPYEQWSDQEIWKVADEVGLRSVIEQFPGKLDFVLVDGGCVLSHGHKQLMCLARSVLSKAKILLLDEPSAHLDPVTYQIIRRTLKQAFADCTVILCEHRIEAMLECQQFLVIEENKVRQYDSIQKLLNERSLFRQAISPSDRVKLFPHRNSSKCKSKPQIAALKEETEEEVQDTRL", "set-up": "delF508 stably-transfected C127 cells were cultured in DMEM with 10% FBS in 6-well plates; expressed in transfected cells; host or cells: C127 cells stably expressing delF508-CFTR", "conditions": "Kopeikin et al., J. Cys. Fibro. 2014; cited from earlier work"}}}
{"smiles": "CC(C)(C)c1cc(C(C)(C)C)c(NC(=O)c2c[nH]c3ccccc3c2=O)cc1O", "note": "[VX-770, Ivacaftor, reference compound]", "values": [{"measurement": "fold increase of mean G551D-CFTR current", "setting": "G551D-CFTR; 200 nM VX-770 alone", "result": "around 10 folds"}, {"measurement": "effect on G551D-CFTR currents, compound alone", "setting": "G551D-CFTR; after activation by PKA and ATP", "result": "increased the current to approximately the same level as LZH-00014"}, {"measurement": "Po of delF508-CFTR in the presence of Ivacaftor", "setting": "delF508-CFTR", "result": "above 0.4"}]}
